In BindingDB's records for doi:10.1021/jm00032a001 (Warner-Lambert, 1994):

Key:
[1] = Tested for inhibition of ICAM expression by ELISA at the dose of 30 uM
[2] = Tested for inhibition of E-selectin expression by ELISA at the dose of 30 uM
[3] = Tested for inhibition of E-selection expression by ELISA at the dose of 30 uM
[4] = Tested for inhibition of ICAM expression by ELISA at the dose of 30 uM; remark: listed apart in the source

| IC50 [1] [µM] | IC50 [2] [µM] | IC50 [3] [µM] | IC50 [4] [µM] | SMILES |
| --- | --- | --- | --- | --- |
| 3.5 | 3.3 | – | – | CC(C)Oc1c(C(N)=O)sc2ccc(O)cc12 [5-Hydroxy-3-isopropoxy-benzo[b]thiophene-2-carboxylic acid amide] |
| 6.6 | 1.4 | – | – | CNC(=O)c1sc2ccc(OC)cc2c1OC(C)C [3-Isopropoxy-5-methoxy-benzo[b]thiophene-2-carboxylic acid methylamide] |
| – | – | 6.6 | 4 | COc1ccc2c(c1)c(OC(C)C)c(C(N)=O)[s+]2[O-] (stereo unspecified) [3-Isopropoxy-5-methoxy-1-oxo-benzo[b]thiophene-2-carboxylic acid amide] |
